# From patent US12497370B2, “Isoxazoline derivatives” (Elanco Tiergesundheit AG, priority 2019, dated 2025)
# System: fleas (Ctenocephalides felis)
# Test: In vitro evaluation of ingestion activity against fleas
# Settings: flea ingestion test, compound in organic bovine blood (0.5% DMSO), adult fleas, percent mortality between 2 h and 48 h post infestation, read-out: EC50 (the source's name)
# Protocol: In Vitro Evaluation of Ingestion Activity Against Fleas (Ctenocephalides felis)
# For flea ingestion tests, serial dilutions of the compound stock were performed using DMSO to achieve the desired range for EC50 and EC90 determination. An aliquot of each compound dilution was added to organic bovine blood with a final DMSO concentration of 0.5% and placed in an artificial feeding container. Fipronil is included to serve as a positive control. Ten newly emerged unfed adult fleas, 0-7 days old Ctenocephalides felis, from a laboratory colony, were aspirated into each vial or cage. The cages for flea ingestion assays were held in a temperature-controlled artificial feeding apparatus to allow continual access to organic bovine blood containing the desired concentration of compound. Fresh aliquots of compound-spiked bovine blood were provided daily for the duration of the study. Fleas were evaluated for percent mortality at various time points between 2 h and 48 h post infestation. Fleas showing normal movement and/or jumping ability were considered viable and those showing no movement after tapping the vials were scored as dead.
row,SMILES,LC50 [mg/L]
1,"Cc1cc(C2=NOC(c3cc(C(F)(F)F)cc(Cl)c3F)(C(F)(F)F)C2)ccc1C(=O)NCC1(S(C)(=O)=O)CC1 (single isomer, unassigned) [Example 3.83, 2-methyl-N-[(1-methylsulfonylcyclopropyl)methyl]-4-[(5R or S)-5-[3-chloro-2-fluoro-5-(trifluoromethyl)phenyl]-5-(trifluoromethyl)-4H-isoxazol-3-yl]benzamide]",< 1
2,"Cc1cc(C2=NOC(c3cc(C(F)(F)F)cc(Cl)c3F)(C(F)(F)F)C2)ccc1C(=O)NC1CCN(C2CC2)C1=O (racemic) [Example 3.15, 2-methyl-4-[(5RS)-5-[3-chloro-2-fluoro-5-(trifluoromethyl)phenyl]-5-(trifluoromethyl)-4H-isoxazol-3-yl]-N-[(3RS)-1-cyclopropyl-2-oxo-pyrrolidin-3-yl]benzamide]",< 3
3,"Cc1cc(C2=NOC(c3cc(C(F)(F)F)cc(Cl)c3F)(C(F)(F)F)C2)ccc1C(=O)N[C@H]1CN(CC(F)(F)F)C1=O (single isomer, unassigned) [Example 3.72, 4-[(5R or S)-5-[3-chloro-2-fluoro-5-(trifluoromethyl)phenyl]-5-(trifluoromethyl)-4H-isoxazol-3-yl]-2-methyl-N-[(3S)-2-oxo-1-(2,2,2-trifluoroethyl)azetidin-3-yl]benzamide]",< 3
4,"CCN1C[C@@H](NC(=O)c2ccc(C3=NOC(c4cc(C(F)(F)F)cc(Cl)c4F)(C(F)(F)F)C3)cc2C)CC1=O (single isomer, unassigned) [Example 3.86, 4-[(5R or S)-5-[3-chloro-2-fluoro-5-(trifluoromethyl)phenyl]-5-(trifluoromethyl)-4H-isoxazol-3-yl]-N-[(3S)-1-ethyl-5-oxo-pyrrolidin-3-yl]-2-methyl-benzamide]",< 1
5,"Cc1cc(C2=NOC(c3cc(C(F)(F)F)cc(Cl)c3F)(C(F)(F)F)C2)ccc1C(=O)N[C@H]1C[C@@H](S(C)(=O)=O)C1 (single isomer, unassigned) [Example 3.49, 4-[(5R or S)-5-[3-chloro-2-fluoro-5-(trifluoromethyl)phenyl]-5-(trifluoromethyl)-4H-isoxazol-3-yl]-2-methyl-N-((cis)3-methylsulfonylcyclobutyl) benzamide]",< 1
6,"Cc1cc(C2=NOC(c3cc(C(F)(F)F)cc(Cl)c3F)(C(F)(F)F)C2)ccc1C(=O)N[C@@H]1CN(CC(F)(F)F)C1=O (single isomer, unassigned) [Example 3.73, 4-[(5R or S)-5-[3-chloro-2-fluoro-5-(trifluoromethyl)phenyl]-5-(trifluoromethyl)-4H-isoxazol-3-yl]-2-methyl-N-[(3R)-2-oxo-1-(2,2,2-trifluoroethyl)azetidin-3-yl]benzamide]",< 1
7,"CCN1C[C@H](NC(=O)c2ccc(C3=NOC(c4cc(C(F)(F)F)cc(Cl)c4F)(C(F)(F)F)C3)cc2C)CC1=O (single isomer, unassigned) [Example 3.87, 4-[(5R or S)-5-[3-chloro-2-fluoro-5-(trifluoromethyl)phenyl]-5-(trifluoromethyl)-4H-isoxazol-3-yl]-N-[(3R)-1-ethyl-5-oxo-pyrrolidin-3-yl]-2-methyl-benzamide]",< 1
8,"Cc1cc(C2=NOC(c3cc(C(F)(F)F)cc(Cl)c3F)(C(F)(F)F)C2)ccc1C(=O)NC1CC(F)C1 (single isomer, unassigned) [Example 3.50, N-(3-fluorocyclobutyl)-2-methyl-4-[(5R or S)-5-[3-chloro-2-fluoro-5-(trifluoromethyl)phenyl]-5-(trifluoromethyl)-4H-isoxazol-3-yl]benzamide]",< 1
9,"Cc1cc(C2=NOC(c3cc(C(F)(F)F)cc(Cl)c3F)(C(F)(F)F)C2)ccc1C(=O)NC1CSC1 (single isomer, unassigned) [Example 3.51, 2-methyl-4-[(5R or S)-5-[3-chloro-2-fluoro-5-(trifluoromethyl)phenyl]-5-(trifluoromethyl)-4H-isoxazol-3-yl]-N-(thietan-3-yl)benzamide]",< 1
10,"Cc1cc(C2=NOC(c3cc(C(F)(F)F)cc(Cl)c3F)(C(F)(F)F)C2)ccc1C(=O)N[C@H]1CC[C@H](C#N)CC1 (single isomer, unassigned) [Example 3.92, N-(trans-4-cyanocyclohexyl)-2-methyl-4-[(5R or S)-5-[3-chloro-2-fluoro-5-(trifluoromethyl)phenyl]-5-(trifluoromethyl)-4H-isoxazol-3-yl]benzamide]",< 3
11,"Cc1cc(C2=NOC(c3cc(C(F)(F)F)cc(Cl)c3F)(C(F)(F)F)C2)ccc1C(=O)NCC1(C#N)CC1 (single isomer, unassigned) [Example 3.77, N-[(1-cyanocyclopropyl)methyl]-2-methyl-4-[(5R or S)-5-[3-chloro-2-fluoro-5-(trifluoromethyl)phenyl]-5-(trifluoromethyl)-4H-isoxazol-3-yl]benzamide]",< 1
12,"Cc1cc(C2=NOC(c3cc(C(F)(F)F)cc(Cl)c3F)(C(F)(F)F)C2)ccc1C(=O)NCc1nc(C#N)cs1 (racemic) [Example 3.23, N-[(4-cyanothiazol-2-yl)methyl]-2-methyl-4-[(5RS)-5-[3-chloro-2-fluoro-5-(trifluoromethyl)phenyl]-5-(trifluoromethyl)-4H-isoxazol-3-yl]benzamide]",< 1
13,"Cc1cc(C2=NO[C@](c3cc(C(F)(F)F)cc(Cl)c3F)(C(F)(F)F)C2)ccc1C(=O)N[C@H]1C[C@@H](C(F)(F)F)C1 (single isomer, unassigned) [Example 3.74, 2-methyl-4-[(5R or S)-5-[3-chloro-2-fluoro-5-(trifluoromethyl)phenyl]-5-(trifluoromethyl)-4H-isoxazol-3-yl]-N-[cis-3-(trifluoromethyl)cyclobutyl] benzamide]",< 1
14,"Cc1cc(C2=NOC(c3cc(C(F)(F)F)cc(Cl)c3F)(C(F)(F)F)C2)ccc1C(=O)NCC(=O)NCC1CC1 (racemic) [Example 3.8, N-[2-(cyclopropylmethylamino)-2-oxo-ethyl]-2-methyl-4-[(5RS)-5-[3-chloro-2-fluoro-5-(trifluoromethyl)phenyl]-5-(trifluoromethyl)-4H-isoxazol-3-yl]benzamide]",< 1
15,"Cc1cc(C2=NOC(c3cc(C(F)(F)F)cc(Cl)c3F)(C(F)(F)F)C2)ccc1C(=O)N[C@@H]1CCN(CC(F)(F)F)C1 (single isomer, unassigned) [Example 3.80, 4-[(5S or R)-5-[3-chloro-2-fluoro-5-(trifluoromethyl)phenyl]-5-(trifluoromethyl)-4H-isoxazol-3-yl]-2-methyl-N-[(3R)-1-(2,2,2-trifluoroethyl)pyrrolidin-3-yl]benzamide]",< 1
16,"Cc1cc(C2=NOC(c3cc(C(F)(F)F)cc(Cl)c3F)(C(F)(F)F)C2)ccc1C(=O)NC1CC2(COC2)C1 (single isomer, unassigned) [Example 3.62, 2-methyl-N-(2-oxaspiro[3.3]heptan-6-yl)-4-[(5R or S)-5-[3-chloro-2-fluoro-5-(trifluoromethyl)phenyl]-5-(trifluoromethyl)-4H-isoxazol-3-yl]benzamide]",< 1
17,"Cc1cc(C2=NOC(c3cc(C(F)(F)F)cc(Cl)c3F)(C(F)(F)F)C2)ccc1C(=O)Nc1cnn(CC#N)c1 (single isomer, unassigned) [Example 3.75, N-[1-(cyanomethyl)pyrazol-4-yl]-2-methyl-4-[(5S or R)-5-[3-chloro-2-fluoro-5-(trifluoromethyl)phenyl]-5-(trifluoromethyl)-4H-isoxazol-3-yl]benzamide]",< 3
18,"Cc1cc(C2=NOC(c3cc(C(F)(F)F)cc(Cl)c3F)(C(F)(F)F)C2)ccc1C(=O)N[C@@H]1CNC(=O)C1 (single isomer, unassigned) [Example 3.84, 4-[(5R or S)-5-[3-chloro-2-fluoro-5-(trifluoromethyl)phenyl]-5-(trifluoromethyl)-4H-isoxazol-3-yl]-2-methyl-N-[(3S)-5-oxopyrrolidin-3-yl]benzamide]",< 1
19,"Cc1cc(C2=NOC(c3cc(C(F)(F)F)cc(Cl)c3F)(C(F)(F)F)C2)ccc1C(=O)Nc1cccc(C#N)c1 (single isomer, unassigned) [Example 3.81, N-(3-cyanophenyl)-2-methyl-4-[(5S or R)-5-[3-chloro-2-fluoro-5-(trifluoromethyl)phenyl]-5-(trifluoromethyl)-4H-isoxazol-3-yl]benzamide]",< 3
20,"Cc1cc(C2=NO[C@](c3cc(C(F)(F)F)cc(Cl)c3F)(C(F)(F)F)C2)ccc1C(=O)N[C@H]1C[C@H](C(F)(F)F)C1 (single isomer, unassigned) [Example 3.65, 2-methyl-4-[(5R or S)-5-[3-chloro-2-fluoro-5-(trifluoromethyl)phenyl]-5-(trifluoromethyl)-4H-isoxazol-3-yl]-N-[trans-3-(trifluoromethyl)cyclobutyl] benzamide]",< 1
21,"Cc1cc(C2=NO[C@@](c3cc(C(F)(F)F)cc(Cl)c3F)(C(F)(F)F)C2)ccc1C(=O)N[C@@H]1CC[C@H](C#N)C1 (single isomer, unassigned) [Example 3.90, 4-[(5S or R)-5-[3-chloro-2-fluoro-5-(trifluoromethyl)phenyl]-5-(trifluoromethyl)-4H-isoxazol-3-yl]-N-[cis-3-cyanocyclopentyl]-2-methyl-benzamide]",< 1
22,"Cc1cc(C2=NOC(c3cc(C(F)(F)F)cc(Cl)c3F)(C(F)(F)F)C2)ccc1C(=O)N[C@H]1CC[C@@H](C#N)CC1 (single isomer, unassigned) [Example 3.91, N-(cis-4-cyanocyclohexyl)-2-methyl-4-[(5R or S)-5-[3-chloro-2-fluoro-5-(trifluoromethyl)phenyl]-5-(trifluoromethyl)-4H-isoxazol-3-yl]benzamide]",< 1
